The record followed here is patent publication USRE46792E1, “Oxazole compound and pharmaceutical composition” (Otsuka Pharmaceutical Co., Ltd., priority 2005, dated 2018).

The assay has as its target human PDE4D3 (PDE4D) (Homo sapiens (Human), UniProt Q08499). As to the kind of experiment: Phosphodiesterase (PDE)4 inhibitory activity evaluation test ([3H]cAMP hydrolysis by PDE4D enzyme solution). The class given is biochemical. To be noted: recombinant human PDE4D3 expressed in COS-7 cells; [3H]cAMP substrate; 10 min at 30° C.; 2% DMSO. The source says: Phosphodiesterase (PDE)4 Inhibitory Activity Evaluation Test
(1) Large Scale Plasmid Preparation
Plasmid containing genes (HPDE4D) coding for human PDE4D3 cDNA (stored in Otsuka America Pharmaceutical, Inc., Maryland Research Laboratories) was transformed in E. coli, cultured on a large scale, and purified using an EndoFree™ Plasmid Maxi Kit (Qiagen).
(2) Abundant Expression and Purification of PDE4D
COS-7 cells derived from African green monkey kidneys were passage cultured in D-MEM media containing 100 units/ml penicillin, 100 μg/ml streptomycin, and 10% FBS. The cells were transfected with the plasmid prepared in (1) above using Lipofectamine™ 2000 (hereinafter referred to as “LF2000”, Invitrogen), following the manufacturer's protocol. The COS-7 cells were inoculated in a 10 cm culture dish on the previous day so as to be 90% confluent on the day of transfection. Culture dishes each containing a plasmid solution (solution A) in which 24 μg of plasmid was diluted in 1.5 ml Opti-MEM I Reduced Serum Medium (Invitrogen) and an LF2000 solution (solution B) in which 60 μl of LF2000 was diluted in 1.5 ml Opti-MEM I Reduced Serum Medium were separately allowed to stand for 5 minutes at room temperature. Solutions A and B were then mixed and the mixture was allowed to stand for 20 minutes at room temperature. The mixture was added to the cultured cells, and incubated at 37° C. (5% CO2) overnight. On the following day, the medium was replaced, and the mixture was further incubated overnight to harvest the cells in the following manner. The cells were washed with PBS (Sigma) once, and 10 ml of a Trypsin-EDTA solution (Sigma) was added to each culture dish. After the solution was distributed to each of the culture dishes, the cells were detached, and the dishes were allowed to stand for about 5 minutes at 37° C. The detached cells from the dishes were suspended in media, collected into centrifuge tubes, and centrifuged at 1200 rpm for 5 minutes at 4° C., and supernatants were removed. The cells were further washed with PBS, and stored at −80° C. KHEM buffer (100 mM Hepes, 50 mM KCl, 10 mM EGTA, 1.92 mM MgCl2, pH 7.4) containing 1 mM DTT, 1 μg/ml antipain, 1 μg/ml aprotinin, 1 μg/ml leupeptin, 1 μg/ml pepstatin A, 157 μg/ml benzamidine, and 120 μg/ml Pefabloc SC was added to the stored cells, and the contents were moved to a glass homogenizer to be homogenized on ice. The cell suspension was centrifuged at 1000 rpm for 5 minutes at 4° C., and the supernatant was further centrifuged at 14000 rpm for one hour. After centrifugation, the supernatant was dispensed into new tubes as PDE4D enzyme solutions, and stored in a deep freezer.
(3) Determination on Dilution Ratio of PDE4D Enzyme Solutions
The PDE4D enzyme solutions prepared in (2) above were dissolved in 20 mM Tris-HCl solution (pH 7.4) to give 10-, 25-, 50-, 100-, 200-, 400-, and 800-fold dilutions of the enzyme solutions. PDE4D activities were measured according to (4) below. The percentage of catalyzed cAMP to total cAMP was calculated, and such a dilution, in which the percentage was between 10% and 30%, was adopted in the inhibitory study below.
(4) Measurement of PDE4D Inhibitory Activity
Necessary amounts of test compounds were weighed, and 100% dimethylsulfoxide (DMSO) was added thereto to adjust the concentration to 10 mM. The solutions were stored in a freezer as stock solutions of each test compound. After being thawed when required, the solutions were diluted 20-fold with 100% DMSO to give a 500 μM concentration. Further, 10-fold serial dilutions were made with 100% DMSO to prepare test compounds of different concentrations. 2 μl of solutions containing one of each of the test compound were separately added into 1.2 ml tubes in which 23 μl of 20 mM Tris-HCl (pH 7.4) had been placed beforehand. […]

The IC50 is the point on the concentration scale where inhibition reaches its midpoint.

human PDE4D3 (PDE4D), sequence (Q08499 other isoform, or with tags, fused parts or gaps): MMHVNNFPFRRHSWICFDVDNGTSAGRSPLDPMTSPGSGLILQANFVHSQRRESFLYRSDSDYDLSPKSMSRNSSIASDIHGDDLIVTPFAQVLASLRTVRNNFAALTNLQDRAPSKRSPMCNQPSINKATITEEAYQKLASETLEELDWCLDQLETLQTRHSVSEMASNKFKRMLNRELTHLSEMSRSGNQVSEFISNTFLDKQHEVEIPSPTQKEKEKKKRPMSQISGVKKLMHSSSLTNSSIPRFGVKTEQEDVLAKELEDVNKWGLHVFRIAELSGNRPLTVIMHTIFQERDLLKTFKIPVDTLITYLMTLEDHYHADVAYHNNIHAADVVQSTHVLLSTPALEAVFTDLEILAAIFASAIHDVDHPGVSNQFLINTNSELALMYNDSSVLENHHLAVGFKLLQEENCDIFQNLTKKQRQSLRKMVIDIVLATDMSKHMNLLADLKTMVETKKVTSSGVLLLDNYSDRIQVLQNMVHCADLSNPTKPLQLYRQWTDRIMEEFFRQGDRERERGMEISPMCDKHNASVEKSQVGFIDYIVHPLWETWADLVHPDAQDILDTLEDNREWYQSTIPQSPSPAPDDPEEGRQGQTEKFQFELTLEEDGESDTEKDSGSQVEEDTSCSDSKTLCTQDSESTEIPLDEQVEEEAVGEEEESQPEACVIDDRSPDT

In the case of `CCOc1cc(-c2nc(CCC(=O)c3ccc(F)cc3OCC)co2)ccc1OC` [Example 304, 1-(2-ethoxy-4-fluorophenyl)-3-[2-(3-ethoxy-4-methoxyphenyl)oxazol-4-yl]propan-1-one], the half-maximal inhibitory concentration (IC50) was less than 50 nM.

In the case of `CCOc1cc(-c2nc(CCC(=O)c3ccccc3OC(F)F)co2)ccc1OC` [Example 274, 1-(2-difluoromethoxyphenyl)-3-[2-(3-ethoxy-4-methoxyphenyl)oxazol-4-yl]propan-1-one], the 50% inhibitory concentration (IC50) is less than 50 nM.

For the molecule `COc1ccc(-c2nc(CCC(=O)c3ncccc3OC)co2)cc1OCC(F)(F)F` [Example 129, 1-(3-methoxypyridin-2-yl)-3-{2-[4-methoxy-3-(2,2,2-trifluoroethoxy)phenyl]oxazol-4-yl}propan-1-one], the half-inhibitory concentration (IC50) was less than 50 nM. On to `CCOc1ccccc1C(=O)CCc1coc(-c2ccc(OC(F)F)c(OCC3CC3)c2)n1` [Example 336, 3-[2-(3-cyclopropylmethoxy-4-difluoromethoxyphenyl)oxazol-4-yl]-1-(2-ethoxyphenyl)propan-1-one], for which the IC50 is less than 50 nM. Turning to `CCOc1cc(-c2nc(CCC(=O)c3ccccc3OCC)co2)ccc1OC` [Example 103, 3-[2-(3-ethoxy-4-methoxyphenyl)oxazol-4-yl]-1-(2-ethoxyphenyl)propan-1-one], the IC50 is less than 50 nM. Turning to `C=CCOc1ccccc1C(=O)CCc1coc(-c2ccc(OC)c(OC(C)C)c2)n1` [Example 224, 1-(2-allyloxyphenyl)-3-[2-(3-isopropoxy-4-methoxyphenyl)oxazol-4-yl]propan-1-one], the IC50 was less than 50 nM. As to `C=CCOc1cc(-c2nc(CCC(=O)c3ccccc3OCC=C)co2)ccc1OC` [Example 166, 3-[2-(3-allyloxy-4-methoxyphenyl)oxazol-4-yl]-1-(2-allyloxyphenyl)propan-1-one], the IC50 was less than 50 nM.

In the case of `CCOc1ccccc1C(=O)CCc1coc(-c2ccc(OC)c(OCC(F)(F)F)c2)n1` [Example 112, 1-(2-ethoxyphenyl)-3-{2-[4-methoxy-3-(2,2,2-trifluoroethoxy)phenyl]oxazol-4-yl}propan-1-one], the half-inhibitory concentration (IC50) is less than 50 nM. Regarding `CCOc1cc(-c2nc(CCC(=O)c3ccccc3OCC)co2)ccc1OC(F)F` [Example 334, 3-[2-(4-difluoromethoxy-3-ethoxyphenyl)oxazol-4-yl]-1-(2-ethoxyphenyl)propan-1-one], the IC50 was less than 50 nM.

Take `COc1ccc(-c2nc(CCC(=O)c3ncccc3C)co2)cc1OCC1CC1` [Example 137, 3-[2-(3-cyclopropylmethoxy-4-methoxyphenyl)oxazol-4-yl]-1-(3-methylpyridin-2-yl)propan-1-one]: the half-inhibitory concentration (IC50) was less than 50 nM. Next, `CCCOc1ccccc1C(=O)CCc1coc(-c2ccc(OC)c(OCC)c2)n1` [Example 195, 3-[2-(3-ethoxy-4-methoxyphenyl)oxazol-4-yl]-1-(2-propoxyphenyl)propan-1-one]: less than 50 nM; `Cc1cccnc1C(=O)CCc1coc(-c2ccc(OC(F)F)c(OC(C)C)c2)n1` [Example 332, 3-[2-(4-difluoromethoxy-3-isopropoxyphenyl)oxazol-4-yl]-1-(3-methylpyridin-2-yl)propan-1-one]: less than 50 nM. As to `COc1ccc(-c2nc(CCC(=O)c3ccccc3OC)co2)cc1OCC1CC1` [Example 170, 3-[2-(3-cyclopropylmethoxy-4-methoxyphenyl)oxazol-4-yl]-1-(2-methoxyphenyl)propan-1-one], the IC50 is less than 50 nM. On to `C=CCOc1cc(-c2nc(CCC(=O)c3ccccc3OCC)co2)ccc1OC(F)F` [Example 335, 3-[2-(3-allyloxy-4-difluoromethoxyphenyl)oxazol-4-yl]-1-(2-ethoxyphenyl)propan-1-one], for which the IC50 is less than 50 nM. As to `CCOc1ccccc1C(=O)CCc1coc(-c2ccc(OC)c(OCC3CCC3)c2)n1` [Example 116, 3-[2-(3-cyclobutylmethoxy-4-methoxyphenyl)oxazol-4-yl]-1-(2-ethoxyphenyl)propan-1-one], the 50% inhibitory concentration (IC50) is less than 50 nM.

Turning to `CCOc1ccccc1C(=O)CCc1coc(-c2ccc(OC)c(OCCF)c2)n1` [Example 315, 1-(2-ethoxyphenyl)-3-{2-[3-(2-fluoroethoxy)-4-methoxyphenyl]oxazol-4-yl}propan-1-one], the IC50 is less than 50 nM. Turning to `CCOc1ccccc1C(=O)NCc1coc(-c2ccc(OC(F)F)c(OCC(F)F)c2)n1` [Example 382, N-{2-[4-difluoromethoxy-3-(2,2-difluoroethoxy)phenyl]-oxazol-4-ylmethyl}-2-ethoxy benzamide], the 50% inhibitory concentration (IC50) is less than 50 nM. For `COc1ccc(-c2nc(CCC(=O)c3ccccc3OCC(F)F)co2)cc1OCC(C)C` [Example 285, 1-[2-(2,2-difluoroethoxy)phenyl]-3-[2-(3-isobutoxy-4-methoxyphenyl)oxazol-4-yl]-propan-1-one], the IC50 is less than 50 nM. Regarding `CCCOc1cc(-c2nc(CNC(=O)c3ccccc3OCC)co2)ccc1OC(F)F` [Example 350, N-[2-(4-difluoromethoxy-3-propoxyphenyl)oxazol-4-ylmethyl]-2-ethoxybenzamide], the IC50 is less than 50 nM. On to `CCOc1cc(-c2nc(CCC(=O)c3ccc(F)cc3OC(C)C)co2)ccc1OC` [Example 305, 3-[2-(3-ethoxy-4-methoxyphenyl)oxazol-4-yl]-1-(4-fluoro-2-isopropoxyphenyl)propan-1-one], for which the half-maximal inhibitory concentration (IC50) is less than 50 nM. With `CCCOc1cc(-c2nc(CCC(=O)c3ncccc3C)co2)ccc1OC(F)F` [Example 329, 3-[2-(4-difluoromethoxy-3-propoxyphenyl)oxazol-4-yl]-1-(3-methylpyridin-2-yl)propan-1-one], the concentration for half-maximal inhibition (IC50) was less than 50 nM. With `CCCOc1cc(-c2nc(CNC(=O)c3ncccc3C)co2)ccc1OC(F)F` [Example 340, N-[2-(4-difluoromethoxy-3-propoxyphenyl)oxazol-4-ylmethyl]-3-methylpicolinamide], the half-inhibitory concentration (IC50) is less than 50 nM.

Regarding `COc1ccc(-c2nc(CCC(=O)c3ncccc3C)co2)cc1OCCC1CC1` [Example 153, 3-{2-[3-(2-cyclopropylethoxy)-4-methoxyphenyl]oxazol-4-yl}-1-(3-methylpyridin-2-yl)propan-1-one], the IC50 was less than 50 nM. In the case of `CCOc1ccc(-c2nc(CCC(=O)c3ccccc3OCC(F)F)co2)cc1OCC` [Example 290, 3-[2-(3,4-diethoxyphenyl)oxazol-4-yl]-1-[2-(2,2-difluoroethoxy)phenyl]propan-1-one], the half-maximal inhibitory concentration (IC50) was less than 50 nM. In the case of `COc1ccc(-c2nc(CNC(=O)c3ncccc3C)co2)cc1OCC(F)(F)F` [Example 19, N-{2-[4-methoxy-3-(2,2,2-trifluoroethoxy)phenyl]oxazol-4-ylmethyl}-3-methylpicolinamide] it was less than 50 nM; in that of `CCOc1ccc(-c2nc(CCC(=O)c3ccccc3OCC)co2)cc1OCC` [Example 182, 3-[2-(3,4-diethoxyphenyl)oxazol-4-yl]-1-(2-ethoxyphenyl)propan-1-one], less than 50 nM; in that of `CCOc1ccc(-c2nc(CCC(=O)c3ncccc3C)co2)cc1OCC(F)F` [Example 318, 3-{2-[3-(2,2-difluoroethoxy)-4-ethoxyphenyl]oxazol-4-yl}-1-(3-methylpyridin-2-yl)-propan-1-one], less than 50 nM. With `CCOc1cc(-c2nc(CCC(=O)c3ncccc3C)co2)ccc1OC` [Example 138, 3-[2-(3-ethoxy-4-methoxyphenyl)oxazol-4-yl]-1-(3-methylpyridin-2-yl)propan-1-one], the 50% inhibitory concentration (IC50) is less than 50 nM. Consider `C=CCCOc1cc(-c2nc(CNC(=O)c3ccccc3OCC)co2)ccc1OC(F)F` [Example 354, N-[2-(3-but-3-enyloxy-4-difluoromethoxyphenyl)oxazol-4-ylmethyl]-2-ethoxybenzamide], for which the IC50 is less than 50 nM.
